Active and inactive are the calls of the source. No cut-off for these calls is given here. Bounds are passed on as bounds.

The results in this text go back to ChEMBL document CHEMBL4196241, “Auranthine, a Benzodiazepinone from Penicillium aurantiogriseum: Refined Structure, Absolute Configuration, and Cytotoxicity” (J Nat Prod, 2018).

The subject of experiment [1] is HepG2. In words: Cytotoxicity against human HepG2 cells assessed as reduction in cell viability by CCK8 assay relative to control. Type of experiment: functional, cell-based. In general terms: Formazan colour is commonly taken as a measure of viable cells.
The nature of experiment [2]: (§1) Cytotoxicity against human IHKE cells assessed as reduction in cell viability by CCK8 assay. Type of experiment: functional, cell-based.
In experiment [3] the test system is HepG2. Kind of experiment: Cytotoxicity against human HepG2 cells assessed as reduction in cell viability at 100 uM by CCK8 assay relative to control. It counts as functional.
Experiment [4] is filed under the species Homo sapiens. Kind of experiment: Cytotoxicity against human IHKE cells assessed as reduction in cell viability up to 100 uM by CCK8 assay. Type of experiment: functional, cell-based.
Experiment [5] deals with HepG2. Kind of experiment: Cytotoxicity against human HepG2 cells assessed as reduction in cell viability up to 100 uM by CCK8 assay. It counts as functional, cell-based.
The species entered for experiment [6] is Homo sapiens. Described as §1. It counts as functional, cell-based.

What is called IC50 is the concentration that gives 50% inhibition. Regarding `C=CC(C)(C)c1[nH]cnc1/C=C1\NC(=O)[C@H](C(C)C)NC1=O`, the Activity result in the experiment on HepG2 [1] was “Dose-dependent effect”; with HepG2 [3], “<=56%”. Besides, the IC50 in experiment [2] was determined as 25 µM.

Turning to `N#CCC[C@@H]1NC(=O)c2ccccc2N2C(=O)c3ccccc3N[C@H]12`, the outcome in the experiment listed under Homo sapiens [4] and in the experiment on HepG2 [5] was inactive.

Turning to `N#CCC[C@@H]1NC(=O)c2ccccc2-n2c1nc1ccccc1c2=O`, the result in the experiment listed under Homo sapiens [4] and in the experiment with HepG2 [5] was inactive.

With `CN1C(=O)c2ccccc2N2C(=O)c3ccccc3N[C@@H]2[C@@H]1CCC#N`, the Activity entry in the experiment filed under Homo sapiens [6] is “Dose-dependent effect”. The result in the experiment on HepG2 [5] was inactive.
